Measured values: paper PMC7377239, “Cardiovascular Effects of Polychlorinated Biphenyls and Their Major Metabolites” (Environmental Health Perspectives, 2020)
Like-named read-outs stand apart in the source and are kept apart here.

Legend:
[1] = system: iCell endothelial cells (human iPSC-derived ECs); assay: Tube formation (tubulogenesis) assay in iCell endothelial cells, 18 h; type: cell-based; conditions: Homo sapiens, Endothelial cell, 18 hr; for activity at 0.1 µM: 0.10 µM
Summary of the method: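 Tube formation was measured by calcein AM imaging after overnight compound exposure (37°C, 0.5% DMSO vehicle) of human iPSC-derived ECs, 7,500/well, on reduced-growth-factor Geltrex in starvation medium. Vehicle-normalized data fitted to four-parameter logistic; POD set at one vehicle SD; without response, 100 μM taken as NOAEL.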

HUVECs = assay: High-content imaging cytotoxicity in HUVECs, 24 h; type: cell-based, human; conditions: Homo sapiens, HUVEC, 24 h; for viability at 0.01 µM / activity at 0.01 µM / viability at 0.1 µM / activity at 0.1 µM / viability at 1 µM / activity at 1 µM / viability at 10 µM / activity at 10 µM / viability at 100 µM / activity at 100 µM: 0.00 µM = 100.00; for viability at 0.1 µM / activity at 0.1 µM: 0.10 µM
Summary of the method: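 Confluent HUVEC monolayers, passages 1–5, received test chemicals for 24 h. Cytotoxicity was scored from triple-stain high-content images, with PODs defined by a one-SD deviation from 0.5% DMSO vehicle controls.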

[2] = iPSC-EC tube formation, 0.00 µM control = 100.00, read-out: endo.mtl.18hr
[3] = iPSC-EC tube formation, 0.00 µM control = 100.00, read-out: endo.tlps.18hr
[4] = iPSC-EC tube formation, 0.00 µM control = 100.00, read-out: endo.tta.18hr
[5] = iPSC-EC tube formation, 0.00 µM control = 100.00, read-out: endo.ttl.18hr
[6] = HUVECs, 24 hr, read-out: huvec.cyto.24hr
[7] = HUVECs, 24 hr, read-out: huvec.mito.24hr
[8] = HUVECs, 24 hr, read-out: huvec.mitoint.24hr
[9] = HUVECs, 24 hr, read-out: huvec.nma.24hr
[10] = HUVECs, 24 hrs, read-out: huvec.tc.24hrs

For `Oc1cc(Cl)c(-c2cc(Cl)ccc2Cl)cc1Cl` [4-OH PCB52], the activity at 0.01 µM [1, 2] was 114%, the activity at 0.01 µM [1, 3] was 107% and the activity at 0.01 µM [1, 4] was 144%. For the same molecule, the activity at 0.01 µM [1, 5] was 144%, the activity at 0.1 µM [1, 2] was 119% and the activity at 0.1 µM [1, 3] was 109%. For the same molecule, the activity at 0.1 µM [1, 4] was 116%, the activity at 0.1 µM [1, 5] was 125% and the activity at 1 µM [1, 2] was 111%. For the same molecule, the activity at 1 µM [1, 3] was 129%, the activity at 1 µM [1, 4] was 118% and the activity at 1 µM [1, 5] was 124%. It also gave an activity at 10 µM [1, 2] of 84.5%, an activity at 10 µM [1, 3] of 70.9% and an activity at 10 µM [1, 4] of 86%. It also gave an activity at 10 µM [1, 5] of 85.7%, an activity at 100 µM [1, 2] of 0% and an activity at 100 µM [1, 3] of 0%. The activity at 100 µM [1, 4] was 0%, the activity at 100 µM [1, 5] was 0% and the minimal effective concentration ([1]; iPSC-EC tube formation, top concentration 100.00 µM, read-out: endo.mtl.18hr POD) was 9.52 µM. For the same molecule, the minimal effective concentration ([1]; iPSC-EC tube formation, top concentration 100.00 µM, read-out: endo.tlps.18hr POD) was 8.32 µM, the minimal effective concentration ([1]; iPSC-EC tube formation, top concentration 100.00 µM, read-out: endo.tta.18hr POD) was 15 µM and the minimal effective concentration ([1]; iPSC-EC tube formation, top concentration 100.00 µM, read-out: endo.ttl.18hr POD) was 15.2 µM. For the same molecule, the viability at 0.01 µM (HUVECs; [6]) was 94.4%, the activity at 0.01 µM (HUVECs; [7]) was 93.5% and the activity at 0.01 µM (HUVECs; [8]) was 103%. For the same molecule, the activity at 0.01 µM (HUVECs; [9]) was 98.9%, the viability at 0.1 µM (HUVECs; [6]) was 120% and the activity at 0.1 µM (HUVECs; [7]) was 118%. The activity at 0.1 µM (HUVECs; [8]) was 104%, the activity at 0.1 µM (HUVECs; [9]) was 94.5% and the viability at 1 µM (HUVECs; [6]) was 93.9%. The activity at 1 µM (HUVECs; [7]) was 93.9%, the activity at 1 µM (HUVECs; [8]) was 111% and the activity at 1 µM (HUVECs; [9]) was 98%. The viability at 10 µM (HUVECs; [6]) was 46.9%, the activity at 10 µM (HUVECs; [7]) was 33.2% and the activity at 10 µM (HUVECs; [8]) was 15.3%. The activity at 10 µM (HUVECs; [9]) was 61.6%, the viability at 100 µM (HUVECs; [6]) was 72% and the activity at 100 µM (HUVECs; [7]) was 0.65%. The activity at 100 µM (HUVECs; [8]) was 5.52%, the activity at 100 µM (HUVECs; [9]) was 119% and the minimal effective concentration (HUVECs; HUVECs, 24 hr, top concentration 100.00 µM, read-out: huvec.cyto.24hr POD) was 1 µM. It also gave a minimal effective concentration (HUVECs; HUVECs, 24 hr, top concentration 100.00 µM, read-out: huvec.mito.24hr POD) of 1.1 µM, a minimal effective concentration (HUVECs; HUVECs, 24 hr, top concentration 100.00 µM, read-out: huvec.mitoint.24hr POD) of 2.32 µM and a minimal effective concentration (HUVECs; HUVECs, 24 hr, top concentration 100.00 µM, read-out: huvec.nma.24hr POD) of 100 µM. For the same molecule, the viability at 0.01 µM (HUVECs; [10]) was 94.4%, the viability at 0.1 µM (HUVECs; [10]) was 120% and the viability at 1 µM (HUVECs; [10]) was 93.9%. For the same molecule, the viability at 10 µM (HUVECs; [10]) was 46.9%, the viability at 100 µM (HUVECs; [10]) was 77.5% and the minimal effective concentration (HUVECs; HUVECs, 24 hrs, top concentration 100.00 µM, read-out: huvec.tc.24hrs POD) was 1 µM.
`Oc1ccc(O)c(-c2ccc(Cl)cc2)c1` [2',5'-diOH-PCB 3, 4-Chloro-2′,5′-dihydroxybiphenyl] showed a minimal effective concentration ([1]; endothelial cells (endo), tube formation mtl, read-out: POD endo.mtl.18hr) of 0.47 µM, a minimal effective concentration ([1]; endothelial cells (endo), tube formation tlps, read-out: POD endo.tlps.18hr) of 0.53 µM and a minimal effective concentration ([1]; endothelial cells (endo), tube formation tta, read-out: POD endo.tta.18hr) of 1.63 µM. The minimal effective concentration ([1]; endothelial cells (endo), tube formation ttl, read-out: POD endo.ttl.18hr) was 1.51 µM, the minimal effective concentration (HUVECs; cyto, 24 hr, read-out: POD huvec.cyto.24hr) was 0.12 µM and the minimal effective concentration (HUVECs; mito, 24 hr, read-out: POD huvec.mito.24hr) was 0.13 µM. For the same molecule, the minimal effective concentration (HUVECs; mitoint, 24 hr, read-out: POD huvec.mitoint.24hr) was 3.51 µM, the minimal effective concentration (HUVECs; nma, 24 hr, read-out: POD huvec.nma.24hr) was 8.87 µM and the minimal effective concentration (HUVECs; tc, 24 hr, read-out: POD huvec.tc.24hr) was 0.12 µM.
